Source: ChEMBL document CHEMBL4818999, “Pyrido[2, 3-d]pyrimidin-7(8H)-ones as new selective orally bioavailable Threonine Tyrosine Kinase (TTK) inhibitors” (Eur J Med Chem, 2021)

What was measured:
NCI-H460 = experiment: Antiproliferative activity against human NCI-H460 cells assessed as growth inhibition after 96 hrs by CCK8 assay; format: functional, cell-based; settings: NCI-H460, 96 h
[1] = molecular target: STE20/SPS1-related proline-alanine-rich protein kinase (Homo sapiens) (UniProt Q9UEW8); settings: dose 100.0 nM
Description: Inhibition of human STK39 at 100 nM by direct-filter Binding radiometric assay relative t

[2] = molecular target: Myotonin-protein kinase (Homo sapiens) (UniProt Q09013); settings: dose 100.0 nM
Description: Inhibition of human recombinant DMPK (1 to 549) using Axltide at 100 nM direct filter-binding radiometric kinase activity assay relative to control

[3] = AUC (0 to infinity) in Sprague-Dawley rat at 5 mg/kg, iv; format: ADME, organism-based; design: route intravenous, time infinity, dose 5 mg/kg; settings: in vivo
[4] = molecular target: Casein kinase II subunit alpha (Homo sapiens) (UniProt P68400); settings: dose 100.0 nM
[5] = molecular target: Death-associated protein kinase 3 (Homo sapiens, UniProt O43293); experiment: Binding affinity to wild-type human partial length DAPK3 (M1 to A277 residues) expressed in bacterial expression system by measuring active site-directed competition binding based Kinomescan method
HCT-116 [6] = experiment: Induction of apoptosis in human HCT-116 cells assessed as late apoptotic cells at 111.1 nM incubated for 48 hrs by annexin V and 7-AAD staining based flow cytometry analysis (reference value: 8.59 %); format: functional
HCT-116 [7] = experiment: Antitumor activity at human HCT-116 cells xenografted in CB17-SCID mouse assessed as tumor growth inhibition at 50 mg/kg, po administered daily, 2days on/ 4 days off and measured every 2 days for 16 days relative to control; format: functional; settings: HCT-116, po, 384 h, time 16 day, read-out: TGI
[8] = molecular target: Death-associated protein kinase 1 (Homo sapiens) (UniProt P53355); settings: dose 100.0 nM
[9] = molecular target: Serine/threonine-protein kinase ULK1 (Homo sapiens) (UniProt O75385); settings: dose 100.0 nM
Description: Inhibition of human recombinat ULK1 (1 to 314) using casein as substrate at 100 nM direct filter-binding radiometric kinase activity assay relative to control

[10] = molecular target: Mitogen-activated protein kinase 10 (Homo sapiens) (UniProt P53779); settings: dose 100.0 nM
Description: Inhibition of human full length JNK3 at 100 nM by direct-filter Binding radiometric assay relative to control

HCT-116 [11] = experiment: Antitumor activity at human HCT-116 cells xenografted in CB17-SCID mouse assessed as tumor growth inhibition at 50 mg/kg, po administered once daily for 16 days in combination with paclitaxel at 20 mg/kg, ip once weekly relative to control; format: functional; settings: HCT-116, 384 h, time 16 day, read-out: TGI
HCT-116 [12] = experiment: Induction of apoptosis in human HCT-116 cells assessed as late apoptotic cells at 333.3 nM incubated for 48 hrs by annexin V and 7-AAD staining based flow cytometry analysis (reference value: 8.59 %); format: functional
[13] = molecular target: T1, Dual specificity protein kinase TTK (Homo sapiens, UniProt P33981); experiment: Binding affinity to wild-type human partial length TTK (N505 to V798 residues) expressed in bacterial expression system by active site-directed competition binding based Kinomescan method
T1 sequence (P33981 whole entry): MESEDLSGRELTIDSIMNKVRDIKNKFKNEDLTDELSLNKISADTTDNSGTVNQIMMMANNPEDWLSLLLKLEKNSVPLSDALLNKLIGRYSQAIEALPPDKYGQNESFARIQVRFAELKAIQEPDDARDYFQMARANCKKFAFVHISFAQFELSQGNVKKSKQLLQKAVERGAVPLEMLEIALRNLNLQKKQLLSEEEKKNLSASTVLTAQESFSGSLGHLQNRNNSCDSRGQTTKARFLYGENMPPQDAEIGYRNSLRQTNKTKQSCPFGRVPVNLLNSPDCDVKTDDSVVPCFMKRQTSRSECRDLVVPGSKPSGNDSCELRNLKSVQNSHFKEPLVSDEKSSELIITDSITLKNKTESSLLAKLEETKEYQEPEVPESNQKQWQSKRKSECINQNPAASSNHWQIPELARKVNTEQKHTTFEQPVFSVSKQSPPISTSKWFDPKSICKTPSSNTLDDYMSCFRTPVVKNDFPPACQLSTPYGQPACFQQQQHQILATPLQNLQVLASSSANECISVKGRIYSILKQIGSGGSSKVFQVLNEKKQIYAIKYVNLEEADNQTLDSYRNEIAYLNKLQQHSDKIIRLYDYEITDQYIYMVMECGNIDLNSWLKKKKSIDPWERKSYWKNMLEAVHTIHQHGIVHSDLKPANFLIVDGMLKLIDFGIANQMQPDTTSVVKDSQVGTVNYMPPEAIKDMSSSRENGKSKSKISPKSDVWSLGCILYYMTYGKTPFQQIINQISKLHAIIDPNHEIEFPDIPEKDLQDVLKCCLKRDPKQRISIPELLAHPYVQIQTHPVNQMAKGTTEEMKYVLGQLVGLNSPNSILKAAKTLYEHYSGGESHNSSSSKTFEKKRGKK

HCT-116 [14] = experiment: Induction of apoptosis in human HCT-116 cells assessed as early apoptotic cells at 111.1 nM incubated for 48 hrs by annexin V and 7-AAD staining based flow cytometry analysis (reference value: 8.12 %); format: functional
HCT-116 [15] = experiment: Induction of apoptosis in human HCT-116 cells assessed as […] cells at 1000 nM incubated for 48 hrs by annexin V and 7-AAD staining based flow cytometry analysis (reference value: 1.20 %); format: functional
[16] = Oral bioavailability in Sprague-Dawley rat at 25 mg/kg; format: ADME, organism-based; settings: in vivo
[17] = molecular target: Mitogen-activated protein kinase 9 (Homo sapiens) (UniProt P45984); settings: dose 100.0 nM
Description: Inhibition of human recombinant JNK2 using ATF2 at 100 nM direct filter-binding radiometric kinase activity assay relative to control

[18] = molecular target: MAP/microtubule affinity-regulating kinase 3 (Homo sapiens, UniProt P27448); settings: dose 100.0 nM
[19] = molecular target: Phosphatidylinositol 4,5-bisphosphate 3-kinase catalytic subunit delta isoform (Homo sapiens, UniProt O00329); experiment: Binding affinity to wild-type human partial length PIK3CD (R108 to Q1044 residues) expressed in HEK293 cells by active site-directed competition binding based Kinomescan method; format: cell-based
HCT-116 [20] = experiment: Induction of apoptosis in human HCT-116 cells assessed as viable cells at 111.1 nM incubated for 48 hrs by annexin V and 7-AAD staining based flow cytometry analysis (reference value: 82.09 %); format: functional; settings: read-out: Activity
HCT-116 [21] = experiment: Induction of apoptosis in human HCT-116 cells assessed as late apoptotic cells at 333.3 nM incubated for 48 hrs by annexin V and 7-AAD staining based flow cytometry analysis (reference value: 1.20 %); format: functional
HCT-116 [22] = experiment: Induction of apoptosis in human HCT-116 cells assessed as viable cells at 333.3 nM incubated for 48 hrs by annexin V and 7-AAD staining based flow cytometry analysis (reference value: 82.09 %); format: functional; settings: read-out: Activity
[23] = molecular target: T1, Dual specificity protein kinase TTK; experiment: Inhibition of recombinant full-length human TTK using MBP as substrate incubated for 40 mins in presence of [gamma33P]ATP by scintillation counting based radiometry assay relative to control
Homo sapiens = species: Homo sapiens; settings: dose 100.0 nM
Description: Inhibition of PIPK5 (unknown origin) at 100 nM direct filter-binding radiometric kinase activity assay relative to control

A549 = experiment: Antiproliferative activity against human A549 cells assessed as growth inhibition after 96 hrs by CCK8 assay; format: functional, cell-based; settings: A549, 96 h
[24] = Cmax in Sprague-Dawley rat at 25 mg/kg, po; format: ADME, organism-based; design: route oral, dose 25 mg/kg; settings: in vivo

Death-associated protein kinase 1 (Homo sapiens), sequence (P53355 whole entry, looked up): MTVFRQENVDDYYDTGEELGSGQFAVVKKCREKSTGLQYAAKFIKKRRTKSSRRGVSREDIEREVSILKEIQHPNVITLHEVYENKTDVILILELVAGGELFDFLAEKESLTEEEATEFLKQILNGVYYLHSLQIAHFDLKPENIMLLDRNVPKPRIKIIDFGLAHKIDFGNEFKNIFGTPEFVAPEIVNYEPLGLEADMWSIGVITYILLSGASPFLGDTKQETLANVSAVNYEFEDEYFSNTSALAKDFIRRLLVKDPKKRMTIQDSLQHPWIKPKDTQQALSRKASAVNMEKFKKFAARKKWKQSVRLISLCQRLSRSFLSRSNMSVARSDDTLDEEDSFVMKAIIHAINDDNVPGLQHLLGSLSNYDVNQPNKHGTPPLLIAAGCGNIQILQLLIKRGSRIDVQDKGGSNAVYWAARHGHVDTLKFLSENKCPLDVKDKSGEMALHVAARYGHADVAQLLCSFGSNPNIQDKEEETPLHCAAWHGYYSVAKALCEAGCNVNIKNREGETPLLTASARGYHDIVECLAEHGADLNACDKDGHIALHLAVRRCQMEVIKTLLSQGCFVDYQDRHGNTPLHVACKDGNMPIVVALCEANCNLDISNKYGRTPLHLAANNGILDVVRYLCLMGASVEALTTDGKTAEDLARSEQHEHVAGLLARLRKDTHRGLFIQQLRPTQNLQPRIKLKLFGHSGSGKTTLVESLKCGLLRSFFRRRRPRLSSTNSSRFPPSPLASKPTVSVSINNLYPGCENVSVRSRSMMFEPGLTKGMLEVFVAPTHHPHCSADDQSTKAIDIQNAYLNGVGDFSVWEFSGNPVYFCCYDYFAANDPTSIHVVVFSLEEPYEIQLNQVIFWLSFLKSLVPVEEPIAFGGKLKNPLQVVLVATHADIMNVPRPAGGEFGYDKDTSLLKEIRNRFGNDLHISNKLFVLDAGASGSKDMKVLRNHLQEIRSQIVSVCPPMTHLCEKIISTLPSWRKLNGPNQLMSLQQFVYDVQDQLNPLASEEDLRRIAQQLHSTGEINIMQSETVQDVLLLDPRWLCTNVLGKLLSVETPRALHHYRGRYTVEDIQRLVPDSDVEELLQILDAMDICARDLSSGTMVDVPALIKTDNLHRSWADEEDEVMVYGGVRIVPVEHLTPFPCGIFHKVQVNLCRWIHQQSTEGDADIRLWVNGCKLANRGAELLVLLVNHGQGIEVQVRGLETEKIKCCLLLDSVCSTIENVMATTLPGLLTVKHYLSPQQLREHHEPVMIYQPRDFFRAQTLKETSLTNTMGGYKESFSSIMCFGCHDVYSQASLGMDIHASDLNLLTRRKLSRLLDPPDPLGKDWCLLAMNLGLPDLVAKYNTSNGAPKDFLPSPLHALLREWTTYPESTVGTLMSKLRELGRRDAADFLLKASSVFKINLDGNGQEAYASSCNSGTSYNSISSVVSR
Death-associated protein kinase 3, sequence (O43293 whole entry, the tested form may be a part): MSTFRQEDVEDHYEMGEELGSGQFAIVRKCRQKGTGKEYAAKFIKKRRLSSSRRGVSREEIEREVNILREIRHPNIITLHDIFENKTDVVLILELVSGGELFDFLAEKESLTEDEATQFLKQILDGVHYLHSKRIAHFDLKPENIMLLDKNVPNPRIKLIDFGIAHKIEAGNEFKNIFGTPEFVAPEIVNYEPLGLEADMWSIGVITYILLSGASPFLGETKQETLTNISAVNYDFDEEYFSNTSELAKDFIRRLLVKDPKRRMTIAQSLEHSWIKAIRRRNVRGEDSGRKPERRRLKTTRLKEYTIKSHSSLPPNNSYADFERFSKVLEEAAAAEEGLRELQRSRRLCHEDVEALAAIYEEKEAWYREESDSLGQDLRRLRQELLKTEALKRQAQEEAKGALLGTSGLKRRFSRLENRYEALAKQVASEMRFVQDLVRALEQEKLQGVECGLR
Mitogen-activated protein kinase 10 (Homo sapiens), sequence (P53779 whole entry): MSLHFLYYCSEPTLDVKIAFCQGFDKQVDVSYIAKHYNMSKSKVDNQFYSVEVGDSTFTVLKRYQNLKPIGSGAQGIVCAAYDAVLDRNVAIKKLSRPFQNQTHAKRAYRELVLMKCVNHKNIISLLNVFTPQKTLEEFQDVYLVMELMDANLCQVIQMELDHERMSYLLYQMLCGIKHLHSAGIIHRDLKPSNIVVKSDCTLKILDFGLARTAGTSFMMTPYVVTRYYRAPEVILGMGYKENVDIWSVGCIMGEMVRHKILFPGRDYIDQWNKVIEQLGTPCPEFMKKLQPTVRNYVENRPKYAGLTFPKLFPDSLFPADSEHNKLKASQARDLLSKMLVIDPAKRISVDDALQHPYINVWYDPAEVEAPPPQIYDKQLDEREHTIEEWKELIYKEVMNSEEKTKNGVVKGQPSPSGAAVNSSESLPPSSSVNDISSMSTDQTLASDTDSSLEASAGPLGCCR
MAP/microtubule affinity-regulating kinase 3, sequence (P27448 whole entry, looked up, the tested form may be a part, canonical isoform): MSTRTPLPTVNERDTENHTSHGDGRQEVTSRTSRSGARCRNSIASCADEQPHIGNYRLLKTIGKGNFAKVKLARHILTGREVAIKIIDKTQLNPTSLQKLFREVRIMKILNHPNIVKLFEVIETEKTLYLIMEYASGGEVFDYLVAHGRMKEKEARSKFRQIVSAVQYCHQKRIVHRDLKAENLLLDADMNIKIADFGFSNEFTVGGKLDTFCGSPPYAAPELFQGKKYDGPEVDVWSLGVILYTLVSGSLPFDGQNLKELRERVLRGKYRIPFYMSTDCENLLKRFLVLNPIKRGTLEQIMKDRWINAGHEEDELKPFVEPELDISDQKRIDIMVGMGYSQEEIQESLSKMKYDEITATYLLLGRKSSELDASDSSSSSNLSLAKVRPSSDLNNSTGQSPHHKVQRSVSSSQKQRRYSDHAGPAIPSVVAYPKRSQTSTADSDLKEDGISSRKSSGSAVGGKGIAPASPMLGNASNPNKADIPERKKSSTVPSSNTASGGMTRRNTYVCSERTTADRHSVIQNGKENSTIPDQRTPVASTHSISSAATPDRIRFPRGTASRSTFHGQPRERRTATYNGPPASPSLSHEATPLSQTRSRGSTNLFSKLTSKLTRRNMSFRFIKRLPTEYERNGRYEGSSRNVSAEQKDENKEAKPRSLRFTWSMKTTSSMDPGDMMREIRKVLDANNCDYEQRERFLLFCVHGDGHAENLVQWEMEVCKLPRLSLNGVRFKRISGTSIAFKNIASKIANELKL
Phosphatidylinositol 4,5-bisphosphate 3-kinase catalytic subunit delta isoform, sequence (O00329 whole entry, the tested form may be a part, canonical isoform): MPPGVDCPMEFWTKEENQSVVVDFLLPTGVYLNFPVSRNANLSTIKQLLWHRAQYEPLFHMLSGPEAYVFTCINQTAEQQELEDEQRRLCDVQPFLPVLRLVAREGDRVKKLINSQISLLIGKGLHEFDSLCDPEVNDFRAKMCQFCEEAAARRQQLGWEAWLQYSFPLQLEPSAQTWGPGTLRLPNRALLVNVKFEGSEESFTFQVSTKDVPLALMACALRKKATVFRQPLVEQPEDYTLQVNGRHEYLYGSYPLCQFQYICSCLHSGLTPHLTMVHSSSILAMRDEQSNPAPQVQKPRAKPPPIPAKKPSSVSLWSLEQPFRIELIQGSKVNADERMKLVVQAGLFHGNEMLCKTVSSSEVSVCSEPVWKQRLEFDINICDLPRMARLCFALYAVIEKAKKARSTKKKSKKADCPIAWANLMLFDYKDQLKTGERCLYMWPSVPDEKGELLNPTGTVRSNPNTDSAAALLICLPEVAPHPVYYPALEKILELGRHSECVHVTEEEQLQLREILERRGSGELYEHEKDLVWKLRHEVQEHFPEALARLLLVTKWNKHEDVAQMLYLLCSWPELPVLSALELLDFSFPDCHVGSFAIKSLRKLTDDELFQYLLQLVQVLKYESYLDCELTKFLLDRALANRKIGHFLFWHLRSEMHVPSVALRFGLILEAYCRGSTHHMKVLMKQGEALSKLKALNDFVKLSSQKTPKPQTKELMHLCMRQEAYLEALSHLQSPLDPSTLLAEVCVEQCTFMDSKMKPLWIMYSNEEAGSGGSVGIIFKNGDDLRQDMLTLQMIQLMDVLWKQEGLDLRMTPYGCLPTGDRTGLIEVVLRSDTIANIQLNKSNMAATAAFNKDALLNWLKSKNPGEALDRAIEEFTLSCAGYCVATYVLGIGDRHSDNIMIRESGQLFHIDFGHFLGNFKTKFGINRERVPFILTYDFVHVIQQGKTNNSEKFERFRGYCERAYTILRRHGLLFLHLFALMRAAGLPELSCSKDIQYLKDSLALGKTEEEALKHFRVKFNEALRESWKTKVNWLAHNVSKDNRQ
Myotonin-protein kinase (Homo sapiens), sequence (Q09013 whole entry): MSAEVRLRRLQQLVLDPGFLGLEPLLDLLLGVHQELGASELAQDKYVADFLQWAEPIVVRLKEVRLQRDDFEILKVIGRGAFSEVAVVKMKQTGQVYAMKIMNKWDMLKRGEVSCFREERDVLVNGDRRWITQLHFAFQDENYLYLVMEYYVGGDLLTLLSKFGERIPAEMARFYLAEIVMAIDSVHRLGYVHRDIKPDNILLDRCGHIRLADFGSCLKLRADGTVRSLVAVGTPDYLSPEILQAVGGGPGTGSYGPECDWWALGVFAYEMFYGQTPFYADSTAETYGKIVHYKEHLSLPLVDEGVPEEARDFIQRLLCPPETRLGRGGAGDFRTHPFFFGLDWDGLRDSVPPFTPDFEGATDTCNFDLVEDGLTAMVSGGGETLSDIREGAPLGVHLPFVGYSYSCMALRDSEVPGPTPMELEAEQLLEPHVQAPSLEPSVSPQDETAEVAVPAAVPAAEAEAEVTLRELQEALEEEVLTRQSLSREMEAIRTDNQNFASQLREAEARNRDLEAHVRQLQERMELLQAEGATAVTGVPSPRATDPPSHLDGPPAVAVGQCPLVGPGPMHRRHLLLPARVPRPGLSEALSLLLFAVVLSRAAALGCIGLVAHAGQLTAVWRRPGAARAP

Q: For `COc1cc(N2CCN(C)CC2)ccc1Nc1ncc2c(C)cc(=O)n([C@H]3CC[C@@H](NC(=O)C4CCCCC4)CC3)c2n1`, which IC50 (NCI-H460) is on record?
A: 1090 nM

Q: What about the inhibition [1] of the same molecule?
A: 75%

Q: What about the inhibition [2] of the same molecule?
A: 81%

Q: What about the AUC(0-inf) [3] of the same molecule?
A: 5310 ng·h/mL

Q: And the inhibition [4]?
A: 69%

Q: What about the Kd [5] of the same molecule?
A: 13 nM

Q: What about the Activity (HCT-116 [6]) of the same molecule?
A: 5.3%

Q: What about the inhibition in vivo at 50 mg/kg (HCT-116 [7]) of the same molecule?
A: 29%

Q: And the inhibition [8]?
A: 85%

Q: What about the inhibition [9] of the same molecule?
A: 68%

Q: And the inhibition [10]?
A: 87%

Q: And the inhibition in vivo at 50 mg/kg (HCT-116 [11])?
A: 78%

Q: And the Activity (HCT-116 [12])?
A: 13.81%

Q: And the Kd [13]?
A: 0.15 nM

Q: And the Activity (HCT-116 [14])?
A: 4.46%

Q: What about the Activity (HCT-116 [15]) of the same molecule?
A: 3.44%

Q: What about the bioavailability [16] of the same molecule?
A: 45.2%

Q: What about the inhibition [17] of the same molecule?
A: 86%

Q: And the inhibition [18]?
A: 92%

Q: What about the Kd [19] of the same molecule?
A: > 1000 nM

Q: What about the viability at 0.1111 µM (HCT-116 [20]) of the same molecule?
A: 89.5%

Q: And the Activity (HCT-116 [21])?
A: 2.04%

Q: And the viability at 0.3333 µM (HCT-116 [22])?
A: 70.7%

Q: What about the IC50 [23] of the same molecule?
A: 23 nM

Q: And the inhibition (Homo sapiens)?
A: 77%

Q: What about the IC50 (A549) of the same molecule?
A: 4400 nM

Q: And the Cmax [24]?
A: 1230 ng/mL
